Test results taken from the NIST ThermoML archive (doi:10.1016/j.tca.2015.08.013).

Conditions: for surface tension liquid-gas: Drop volume; for mass density / kinematic viscosity / speed of sound / vapor or sublimation pressure: Liquid; for mass density: Vibrating tube method; for kinematic viscosity / speed of sound: 101.33 kPa; for kinematic viscosity: Capillary tube (Ostwald / Ubbelohde) method; for speed of sound: Sing-around technique in a fixed-path interferometer; for vapor or sublimation pressure: Ebulliometric method (Recirculating still)

c1ccoc1 [furan]
Conditions	kinematic viscosity [m2/s]	speed of sound [m/s]	surface tension liquid-gas [mN/m]	vapor or sublimation pressure [kPa]
278.15 K	4.59e-07	1228.1	26.03	–
280.65 K	4.48e-07	1216.2	25.69	–
283.15 K	4.39e-07	1204.5	25.32	–
284.4 K	–	–	–	45.59
285.65 K	4.3e-07	1192.8	24.97	–
285.86 K	–	–	–	48.66
287.16 K	–	–	–	51.63
288.15 K	4.2e-07	1181	24.59	–
288.34 K	–	–	–	54.23
289.2 K	–	–	–	56.05
290.4 K	–	–	–	59.18
290.65 K	4.09e-07	1169.2	24.18	–
291.7 K	–	–	–	62.26
292.2 K	–	–	–	63.6
292.79 K	–	–	–	64.53
293.15 K	3.99e-07	1157.4	23.79	–
294.55 K	–	–	–	69.25
295.55 K	–	–	–	72.4
295.65 K	3.89e-07	1145.3	23.35	–
296.9 K	–	–	–	76.25
297.36 K	–	–	–	77.63
298.15 K	3.79e-07	1133.1	22.94	–
298.44 K	–	–	–	80.9
299.63 K	–	–	–	84.59
300.65 K	3.7e-07	1120.9	22.55	–
300.76 K	–	–	–	88.22
301.52 K	–	–	–	90.81
302.4 K	–	–	–	93.89
303.15 K	3.61e-07	1108.8	22.08	–
303.86 K	–	–	–	99.07
304.46 K	–	–	–	101.33

Conditions	mass density [kg/m3]
278.15 K, 99 kPa	959.086
280.65 K, 99 kPa	955.729
283.15 K, 99 kPa	952.358
283.15 K, 100 kPa	952.36
283.15 K, 2500 kPa	954.38
283.15 K, 5000 kPa	956.94
283.15 K, 7500 kPa	959.39
283.15 K, 10000 kPa	961.81
283.15 K, 20000 kPa	970.97
283.15 K, 30000 kPa	979.35
283.15 K, 40000 kPa	987.2
283.15 K, 50000 kPa	994.5
283.15 K, 60000 kPa	1001.42
285.65 K, 99 kPa	948.976
288.15 K, 99 kPa	945.579
288.15 K, 100 kPa	945.58
288.15 K, 2500 kPa	947.81
288.15 K, 5000 kPa	950.42
288.15 K, 7500 kPa	953.03
288.15 K, 10000 kPa	955.59
288.15 K, 20000 kPa	965.03
288.15 K, 30000 kPa	973.69
288.15 K, 40000 kPa	981.69
288.15 K, 50000 kPa	989.18
288.15 K, 60000 kPa	996.21
290.65 K, 99 kPa	942.167
293.15 K, 99 kPa	938.739
293.15 K, 100 kPa	938.74
293.15 K, 2500 kPa	940.99
293.15 K, 5000 kPa	943.7
293.15 K, 7500 kPa	946.38
293.15 K, 10000 kPa	948.97
293.15 K, 20000 kPa	958.75
293.15 K, 30000 kPa	967.71
293.15 K, 40000 kPa	976.04
293.15 K, 50000 kPa	983.77
293.15 K, 60000 kPa	990.98
295.65 K, 99 kPa	935.294
298.15 K, 99 kPa	931.835
298.15 K, 100 kPa	931.84
298.15 K, 2500 kPa	934.31
298.15 K, 5000 kPa	937.14
298.15 K, 7500 kPa	939.92
298.15 K, 10000 kPa	942.68
298.15 K, 20000 kPa	952.79
298.15 K, 30000 kPa	961.99
298.15 K, 40000 kPa	970.53
298.15 K, 50000 kPa	978.42
298.15 K, 60000 kPa	985.81
300.65 K, 99 kPa	928.357
303.15 K, 99 kPa	924.861
303.15 K, 100 kPa	924.86
303.15 K, 2500 kPa	927.4
303.15 K, 5000 kPa	930.33
303.15 K, 7500 kPa	933.21
303.15 K, 10000 kPa	936
303.15 K, 20000 kPa	946.46
303.15 K, 30000 kPa	956.04
303.15 K, 40000 kPa	964.82
303.15 K, 50000 kPa	972.99
303.15 K, 60000 kPa	980.62
308.15 K, 2500 kPa	920.6
308.15 K, 5000 kPa	923.71
308.15 K, 7500 kPa	926.73
308.15 K, 10000 kPa	929.66
308.15 K, 20000 kPa	940.5
308.15 K, 30000 kPa	950.3
308.15 K, 40000 kPa	959.34
308.15 K, 50000 kPa	967.69
308.15 K, 60000 kPa	975.44
313.15 K, 2500 kPa	913.48
313.15 K, 5000 kPa	916.68
313.15 K, 7500 kPa	919.8
313.15 K, 10000 kPa	922.81
313.15 K, 20000 kPa	934.04
313.15 K, 30000 kPa	944.27
313.15 K, 40000 kPa	953.57
313.15 K, 50000 kPa	962.21
313.15 K, 60000 kPa	970.23
318.15 K, 2500 kPa	906.59
318.15 K, 5000 kPa	909.88
318.15 K, 7500 kPa	913.18
318.15 K, 10000 kPa	916.44
318.15 K, 20000 kPa	928.06
318.15 K, 30000 kPa	938.56
318.15 K, 40000 kPa	948.09
318.15 K, 50000 kPa	956.88
318.15 K, 60000 kPa	965.06
323.15 K, 2500 kPa	899.25
323.15 K, 5000 kPa	902.71
323.15 K, 7500 kPa	906.1
323.15 K, 10000 kPa	909.42
323.15 K, 20000 kPa	921.53
323.15 K, 30000 kPa	932.47
323.15 K, 40000 kPa	942.39
323.15 K, 50000 kPa	951.44
323.15 K, 60000 kPa	959.86
328.15 K, 2500 kPa	892.18
328.15 K, 5000 kPa	895.9
328.15 K, 7500 kPa	899.49
328.15 K, 10000 kPa	902.97
328.15 K, 20000 kPa	915.52
328.15 K, 30000 kPa	926.72
328.15 K, 40000 kPa	936.8
328.15 K, 50000 kPa	946.08
328.15 K, 60000 kPa	954.71
333.15 K, 2500 kPa	884.69
333.15 K, 5000 kPa	888.51
333.15 K, 7500 kPa	892.17
333.15 K, 10000 kPa	895.74
333.15 K, 20000 kPa	908.84
333.15 K, 30000 kPa	920.52
333.15 K, 40000 kPa	931.04
333.15 K, 50000 kPa	940.62
333.15 K, 60000 kPa	949.48
338.15 K, 2500 kPa	877.34
338.15 K, 5000 kPa	881.44
338.15 K, 7500 kPa	885.37
338.15 K, 10000 kPa	889.16
338.15 K, 20000 kPa	902.71
338.15 K, 30000 kPa	914.72
338.15 K, 40000 kPa	925.5
338.15 K, 50000 kPa	935.32
338.15 K, 60000 kPa	944.34
